Laboratory results from US20180228799A1, “Treatment for Neurological and Mental Disorders” (PSYCHOGENICS, INC., priority 2008, published 2018).

System: Male Wistar rats
Assay: Novel Object Recognition Test (NOR)
Type: in vivo
Settings: 0.3, 1, 3, and 10 mg/kg, 1 h prior to training, 24 hours post training, FIG. 3
Excerpt: In addition to working memory deficits, the initiative, “Measurement and Treatment Research to Improve Cognition in Schizophrenia” (MATRICS) has identified other domains of learning and memory in which schizophrenia patients show impaired visual learning and memory. There are several visual learning and memory tasks appropriate for study in rodents (Powell, S. B. and M. A. Geyer, Overview of animal models of schizophrenia. Curr Protoc Neurosci, 2007. Chapter 9: p. Unit 9 24). […]
Male Wistar rats were assessed for cognitive ability in a test apparatus comprising an open-field arena placed in a sound-attenuated room under dimmed lighting. […] All tests were video scored by an observer blind to treatment. […] Each rat was placed in the arena facing the same direction at the same position, and the time spent actively exploring the objects during a 10-minute test period was recorded. […] After 24 hours, each rat was placed again in the test arena for 10 minutes in the presence of one of the familiar objects and a novel object, and the time spent exploring both objects was recorded. […] The percent time spent exploring the novel object was recorded.

`c1cc2c(c(N3CCNCC3)c1)OCCO2` [Eltoprazine, 1-(2,3-dihydro-1,4-benzodioxanyl-5-yl) piperazine] was tested, and the “Novel object recognition (NOR) memory vs. vehicle-treated controls” value was “significantly improved”.
